# In ChEMBL document CHEMBL1150992, “Synthesis and preparation of an affinity chromatography column for the purification of cytosolic phospholipase A2” (Bioorg Med Chem Lett, 1995):
# What was measured:
# [1] = Inhibitory activity against cPLA2 was assessed from arachidonic acid (AA) release in cell free assay; type: functional
# [2] = Inhibitory activity against cPLA2 was assessed from arachidonic acid (AA) release in U937 cells; type: functional, cell-based; settings: U-937
compound,measurement,setting,value
CCCc1c(OCCCOc2ccc(C(CCCc3ccccc3)SCCC(=O)O)cc2)ccc(C(C)=O)c1O (configuration not stated),IC50,[1],1 µM
same,IC50,[2],1 µM
